From patent US5698672A, “Synthetic calcitonin mimetics” (ZymoGenetics, Inc., priority 1995, dated 1997) come the findings set out here.

Assay [1] concerns the target T1, human calcitonin receptor (Homo sapiens, UniProt P30988).
T1 construct: expressed in transfected cells; host or cells: BHK 570 derivative KZ10-20-48 (clone Hollex-1)
T1 sequence (P30988 25-474): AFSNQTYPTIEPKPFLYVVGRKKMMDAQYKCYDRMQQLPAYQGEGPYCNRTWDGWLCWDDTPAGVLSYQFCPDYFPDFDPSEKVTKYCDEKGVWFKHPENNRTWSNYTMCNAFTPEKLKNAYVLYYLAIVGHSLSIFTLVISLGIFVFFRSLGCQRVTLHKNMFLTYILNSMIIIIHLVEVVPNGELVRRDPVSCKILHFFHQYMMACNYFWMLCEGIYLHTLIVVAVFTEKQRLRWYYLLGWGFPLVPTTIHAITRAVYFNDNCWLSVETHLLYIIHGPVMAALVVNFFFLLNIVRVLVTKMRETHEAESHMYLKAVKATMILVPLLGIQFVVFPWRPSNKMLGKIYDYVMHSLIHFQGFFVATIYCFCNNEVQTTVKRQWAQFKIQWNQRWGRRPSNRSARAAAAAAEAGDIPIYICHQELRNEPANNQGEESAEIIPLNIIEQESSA
Kind of assay: CRE-luciferase induction in Hollex-1 cells (BHK, human calcitonin receptor). The format is cell-based.

Assay [2] relates to KZ10-20-48/Zem 228 (calcitonin receptor-negative BHK cells). Nature of the assay: CRE-luciferase induction in receptor-negative KZ10-20-48/Zem 228 cells. Conditions: Mesocricetus auratus, read-out: EC50, CRE-luciferase induction.
For assay [3], the system named is KZ10-20-48 (BHK 570 cells with CRE-luciferase reporter). Kind of assay: CRE-luciferase induction in BHK/KZ10-20-48 cells. The format is cell-based, hamster. The conditions noted are these: clone KZ10-20-48; 25 mM forskolin, 4 hours; range 15-25 fold.
Assay [4] addresses hamster calcitonin receptor (Mesocricetus auratus, UniProt A0A3Q0D7K7). Nature of the assay: CRE-luciferase induction in Boris/KZ10-3 cells (hamster calcitonin receptor).
For a further assay, the target named is human glucagon receptor (Homo sapiens, UniProt P47871). The conditions noted are these: KZ10-20-48/pLJ6-4-25.
human glucagon receptor, sequence (P47871 26-477): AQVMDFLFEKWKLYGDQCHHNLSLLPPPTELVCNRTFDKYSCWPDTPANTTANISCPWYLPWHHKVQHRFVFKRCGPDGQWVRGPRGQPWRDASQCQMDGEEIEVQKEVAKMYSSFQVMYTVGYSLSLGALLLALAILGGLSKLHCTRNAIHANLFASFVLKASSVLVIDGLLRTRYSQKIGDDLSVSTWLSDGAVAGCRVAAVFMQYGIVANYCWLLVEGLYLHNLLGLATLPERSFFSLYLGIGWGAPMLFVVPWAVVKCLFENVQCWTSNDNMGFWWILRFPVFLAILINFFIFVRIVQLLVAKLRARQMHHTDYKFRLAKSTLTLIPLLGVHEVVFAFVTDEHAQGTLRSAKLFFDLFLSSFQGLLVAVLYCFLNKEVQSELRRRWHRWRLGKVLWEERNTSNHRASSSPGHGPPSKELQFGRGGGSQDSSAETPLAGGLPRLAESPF
The test system of assay [5] is PTH induced bone resorption in mouse calvariae. Kind of assay: Calvarial assay: PTH induced bone resorption, calcium release. The format is cell-based. Conditions: 1 nM PTH 1-34, 72 hours, neonatal mouse calvariae; read-out: Inhibition of Ca++ Release EC50. The method, then:
Calvaria from 4-day old neonatal CD-1 mice (pregnant mice received from Charles River Laboratories, Wilmington, Mass.) were trimmed with fine-tipped scissors to leave the parietal regions, including the sagittal suture. These trimmed bones were placed singly per well into 6-well cell culture cluster plates (Costar, Pleasanton, Calif.) with 1 ml/well of growth medium (DMEM (BioWhittaker, Walkersville, Md.) with 4.5 g/L glucose, 0.29 mg/ml L-glutamine, 1 mM sodium pyruvate, 15% heat-inactivated horse serum, and antibiotics (penicillin-G […], streptomycin […], and neomycin […])), and rocked gently (RedRocker™, model PR50-115V) (Hoefer, San Francisco, Calif.) at 37° C. in a 5% CO2 humidified incubator for 24 hours preincubation.
Following incubation, medium was removed and replaced with 1.5 ml/well of growth medium containing 1 nM parathyroid hormone (PTH) 1-34 (Sigma) to stimulate bone resorption. For evaluation of the ability of synthetic calcitonin mimetics to inhibit PTH induced bone resorption, mimetic compounds in DMSO were added to the growth medium at concentrations ranging from […] (final assay concentration of DMSO less than or equal to 1%). In each experiment human calcitonin (0.02-20 nM, 0.2-2 nM preferred) was added to PTH treated bones as a positive control. […]

The subject of assay [6] is osteoclasts in mouse calvariae. Kind of assay: Calvaria histology: osteoclast number and size. Conditions: PTH induced bone resorption in mouse calvariae. The format is cell-based. The source says: To confirm the findings in the calvarial bone resorption assay employing calcium release from culture mouse calvariae, selected bones were fixed in 10% neutral buffered formalin and demineralized in 5% formic acid with 5% formalin. The bones were dehydrated through an ascending series of ethanol concentrations, infiltrated in glycol methacrylate, and embedded using a JB-4 embedding kit (PolySciences, Warrington, Pa.) (Liu and Kalu, J. Bone Miner. Res., 5:973-82, 1990). Cross sections of calvariae cut at […] were obtained and stained for tartrate-resistant acid phosphatase (TRAP) activity and counterstained with methyl green and thionin for cell morphology (Liu and Kalu, J. Bone. Miner. Res. 1990, supra). osteoclasts were identified by TRAP stain, multinucleation, large cell size, and irregular cell shape. The number of osteoclasts were counted from endocranial and ectocranial bone surfaces and expressed as number/mm perimeter. The size of all the osteoclasts counted was also measured using a Bone Morphometry program (Lui and Kalu, supra.; Bain et al., J. Bone Miner. Res. 8:435-42, 1993). […] This PTH-induced increase was suppressed by treatment with human calcitonin.
Calcitonin mimetic compounds were evaluated in a similar fashion for their ability to suppress PTH-induced increases in osteoclast number and size. Cell toxicity (or death) was also evaluated morphologically. […]

In the next assay the test system is calcitonin receptor. Nature of the assay: CRE-luciferase assay for calcitonin mimetics (calcitonin receptor-positive cell line, Hollex-1 or Boris/KZ10). The format is cell-based. The conditions noted are these: calcitonin receptor-positive cells; cell line not given; read-out: CRE-Luciferase Induction EC50. The source says:
All synthetic calcitonin mimetics are subjected to an assay system that permits rapid identification of substances having selective calcitonin receptor activity on cells expressing the calcitonin receptor. Only those modifications which retain calcitonin-like activity, as assayed by the CRE-luciferase assay for example, are within the scope of this invention. The calcitonin receptor is a member of the G-protein receptor family and transduces signal via activation of adenylate cyclase, leading to elevation of cellular cAMP levels (Lin et al., Science 254:1022-24, 1991). This assay system exploits the receptor's ability to elevate cAMP levels as a way to detect other molecules, not calcitonin, that are able to stimulate the calcitonin receptor and initiate signal transduction.

[ ]: non-standard residue; d: D form. Aib = CC(C)(N)C(=O)O

hamster calcitonin receptor, sequence (A0A3Q0D7K7 entry or part of it): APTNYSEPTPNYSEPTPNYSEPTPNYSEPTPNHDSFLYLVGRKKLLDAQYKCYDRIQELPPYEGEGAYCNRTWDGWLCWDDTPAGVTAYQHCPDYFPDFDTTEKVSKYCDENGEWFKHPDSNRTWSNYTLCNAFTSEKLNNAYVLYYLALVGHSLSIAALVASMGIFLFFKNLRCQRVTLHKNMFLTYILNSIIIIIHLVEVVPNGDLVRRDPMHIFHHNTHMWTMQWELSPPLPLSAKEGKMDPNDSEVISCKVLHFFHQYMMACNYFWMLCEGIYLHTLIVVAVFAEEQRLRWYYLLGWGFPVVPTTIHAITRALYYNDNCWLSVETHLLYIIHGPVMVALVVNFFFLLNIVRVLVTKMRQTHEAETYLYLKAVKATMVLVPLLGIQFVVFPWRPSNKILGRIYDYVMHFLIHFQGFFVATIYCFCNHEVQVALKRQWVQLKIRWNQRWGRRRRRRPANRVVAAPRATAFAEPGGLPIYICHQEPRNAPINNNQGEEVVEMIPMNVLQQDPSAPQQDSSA

By EC50 is commonly meant the concentration that produces a half-maximal response. As to `C=C[C@@]1(C)CC(=O)[C@]2(O)[C@@]3(C)[C@@H](O)CCC(C)(C)[C@@H]3[C@H](O)[C@H](OC(C)=O)[C@@]2(C)O1` [forskolin], the values for the EC50 in assay [1] and in assay [2] were 1.2 µM and 0.6 µM, respectively. Also, in assay [3], the “induction of CRE-luciferase” value is 20 fold. Moreover, the induction of luciferase amounted to 25 fold in assay [4] and 35 fold at human glucagon receptor.
Regarding “Ac-W[Aib]Q[Aib]IT[Aib]L[Aib]PQ[Aib]PF-OH [Synthetic 2807]”, the concentration for a half-maximal effect (EC50) in assay [5] stood at 36 µM; in the assay on calcitonin receptor, 2.28 µM. Moreover, the Histology entry in assay [6] is reported as “Inhibitory”.
